Assay results reported in BindingDB's records for doi:10.1074/jbc.M607293200 (The Scripps Research Institute, 2007).

Molecular target: T1, Phosphoribosylglycinamide formyltransferase (Escherichia coli (strain K12), UniProt P08179)
T1 sequence (P08179 whole entry): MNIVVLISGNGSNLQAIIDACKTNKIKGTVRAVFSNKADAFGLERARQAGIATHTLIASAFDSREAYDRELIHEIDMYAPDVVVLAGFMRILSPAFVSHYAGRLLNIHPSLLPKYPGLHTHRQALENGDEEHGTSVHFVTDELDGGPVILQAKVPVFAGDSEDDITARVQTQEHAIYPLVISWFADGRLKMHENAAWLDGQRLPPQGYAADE
Test: GAR Tfase Activity Assay
Conditions: pH 7.5; 26 °C

Ki	SMILES
> 100 µM	O=C1NS(=O)(=O)Nc2c1ncn2[C@@H]1O[C@H](CO)[C@@H](O)[C@H]1O [7-[(2R,3R,4S,5R)-3,4-dihydroxy-5-(hydroxymethyl)oxolan-2-yl]-1H,3H,4H,7H-2,1,3,5,7-imidazo[4,5-c][1,2,6]thiadiazine-2,2,4-trione]
> 100 µM	O=C1NS(=O)(=O)Nc2c1ncn2[C@@H]1O[C@H](COP(=O)(O)O)[C@@H](O)[C@H]1O [{[(2R,3S,4R,5R)-3,4-dihydroxy-5-(2,2,4-trioxo-1H,3H,4H,7H-2,1,3,5,7-imidazo[4,5-c][1,2,6]thiadiazin-7-yl)oxolan-2-yl]methoxy}phosphonic acid]
0.1 µM	Nc1nc2c(c(=O)[nH]1)C[C@@H](CCc1ccc(C(=O)N[C@@H](CCC(=O)O)C(=O)O)cc1)CN2 [5,10-dideazatetrahydrofolic acid]

SMILES	Ki
O=C1NS(=O)(=O)Nc2nc[nH]c21 [1H,3H,4H,7H-2,1,3,5,7-imidazo[4,5-c][1,2,6]thiadiazine-2,2,4-trione]	> 100 µM
